Results reported in patent US20200289521A1, “USE OF VITAMIN K IN COMBINATION WITH ANTICOAGULANTS” (KAYDENCE PHARMA AS, priority 2019, published 2020).

Experiments:
[1] = tested on: VSMCs; test: Oxidative stress in VSMCs (DCFDA to DCF fluorescence); type: cell-based; conditions: 10 μM, fluorescence measured for 6 hours
Experimental: It is known that the level of reactive oxygen species in cells can be measured by measuring the conversion of 2′,7′-dichlorofluorescein diacetate (DCFDA) to the fluorescent dye 2′,7′-dichlorofluorescein (DCF). The fluorescence generated by cells subjected to DCFDA is directly proportional to the amount of oxidized DCFDA to DCF.
To perform the study, VSMCs (10,000 cells/well) were plated in a 96-well plate and left to adhere overnight. Next, cells were incubated for 1 hour with 20 μM DCFDA. The medium was then changed to medium supplemented with 10 μM vitamin K2 (MK-7). To visualize intracellular oxidative stress, fluorescence was measured for 6 hours and fluorescence intensity was normalized for cell count.

[2] = tested on: human vascular smooth muscle cells (hVSMCs); test: ATP measurement in hVSMCs with warfarin and/or vitamin K2 (luminescence); type: cell-based; conditions: 24 hours
Experimental: This study was performed in order to determine the effect of vitamin K2 (MK-7) on warfarin-induced oxidative stress in muscles. To perform this study, human vascular smooth muscle cells (hVSMCs; 5,000 cells/well) were plated in 96-well dark plates and left to adhere overnight. Next, cells were incubated for 24 hours with either vehicle only (as blank control), warfarin (10 or 50 μM), vitamin K2 (MK-7) (10 μM), or a combination of warfarin (50 μM) and vitamin K2 (MK-7) (10 μM). Hoechst was added to correct for cell number (1 μg/mL). Next, ATP was measured using mammalian lysis buffer for 5 minutes after which 50 μL ATP substrate solution was added to the wells and incubated for 10 minutes in a dark environment. Finally, medium was transferred to a white plate to measure luminescence.

[3] = tested on: VSMCs; test: Hypoxia (CoCl2) induced oxidative stress in VSMCs (DCFDA); type: cell-based; conditions: 50 μM CoCl2 for 19 hours; test substance 10 μM; 6 hours
Experimental: This study was performed to determine whether intracellular oxidative stress in VSCMs is derived from mitochondrial dysfunction. To perform this study, VSMCs were incubated with cobalt chloride, a known stabilizer of HIF1a. Cobalt chloride binding to HIF1a prevents the degradation of HIF1a and thus results in a cellular hypoxia state. HIF1a has been implicated in cancer biology as well as a number of other pathophysiologies, specifically in areas of vascularization and angiogenesis, energy metabolism, cell survival, and tumor invasion. Under normal circumstances, after injury, HIF1a is degraded by the enzyme prolyl hydroxylase (PHD). The continued up-regulation of HIF1a (mimicked by cobalt chloride) promotes tumor growth and metastasis through its role in initiating angiogenesis and regulating cellular metabolism to overcome hypoxia. Hypoxia promotes apoptosis in both normal and tumor cells. Additionally, hypoxia generates significant intracellular oxidative stress.
To perform the study, VSMCs (10,000 cells/well) were plated in a 96-well plate and left to adhere overnight. Next, the medium was changed to a medium supplemented with 50 μM CoCl2 for 19 hours. The next day, cells were washed and incubated for 1 hour with 20 μM DCFDA in the presence of a vehicle (solvent for CoCl2 and vitamin K2 (MK-7)/UQ10), 10 μM vitamin K2 (MK-7), or 10 μM UQ10 in medium. The medium was then changed to a medium supplemented with vehicle, vitamin K2 (MK-7)/UQ10, or CoCl2, and fluorescent was measured for 6 hours. Fluorescence intensity was normalized for cell count.

[4] = tested on: whole-blood thrombogenicity; test: T-TAS Total Thrombus-formation Analysis of whole blood from treated TGR rats; type: in vivo, transgenic Ren-2 rats [TGR(mREN-2)27]
Experimental: This experiment was conducted in order to evaluate the effects of vitamin K2 (MK-7) on the anticoagulant activity of the new oral anticoagulants (NOAC) rivaroxaban and dabigatran using the T-TAS Total Thrombus-formation Analysis System. The T-TAS Total Thrombus-formation Analysis System is a microchip-based flow chamber system capable of evaluating whole-blood thrombogenicity. It is a useful tool in monitoring the efficacy of anticoagulants on thrombus formation and predicting the risk of bleeding complications. To perform the study, 45 wild-type male Sprague-Dawley and 45 transgenic male Ren-2 rats [TGR(mREN-2)27] at the age of 10-11 weeks at the beginning of the treatment period were purchased from animal facility IKEM-CEM Institute of Clinical and Experimental Medicine (Prague, Czech Republic). All animals in the experiment were housed in individually ventilated cages (2-3 rats per cage) and kept in the animal rooms of JCET at a relative humidity of 55±10%, a temperature of 22±2° C., and a light cycle of 7 AM to 7 PM. The rats had free access to food and water. After delivery, animals were randomly divided into 10 experimental groups (5 or 10 rats per group), as indicated below in Table 1. Four days before the start of the treatment, the first part of animals' body weight and food intake was measured in selected representative three cages (rats n=9) to calculate the appropriate amount of tested compounds required for addition to the diet to obtain the dosing indicated in Table 1. It was estimated that food intake was approximately 30 g of chow per rat per day. The animals were fed for two weeks with AIN-93G diet supplemented with rivaroxaban or dabigatran with/without Vitamin K2 (MK-7), as indicated in Table 1. The animals were then anesthetized in order to draw blood samples for further analysis. The body mass of the rats was measured at the beginning and at the end of treatment. At the beginning and at the end of treatment, the food intake per day was measured in representative group of animals to monitor the daily dosing of tested compounds (per kg of body mass). The thrombus formation in vitro was measured in whole blood using a microchip-based flow chamber system according to manufacturers' protocol (Total Thrombus-formation Analyser System, T-TAS; Fujimori Kogyo Co., Ltd., Tokyo, Japan). For the analysis, citrated whole blood (480 μl) was mixed with 20 μl of 300 mM CaCl2 solution containing 1.25 mg/ml CTI (Corn Trypsin Inhibitor). […] The obtained flow pressure pattern for each sample was used to analyze thrombus formation based on the following estimated parameters: […]

[5] = tested on: VSMCs; test: ATP increase in VSMCs, 48 hours, with CoCl2 arm (luminescence); type: cell-based
Experimental: This study was performed to further investigate the origin of ATP production that is influenced by vitamin K2 (MK-7). To perform this study, VSCMs (5000 cells/well) were plated in 96-well plates and left to adhere overnight. Next, cells were incubated for 48 hours with either vehicle, CoCl2 (100 μM), vitamin K2 (MK-7) (10 μM), or UQ10 (10 μM). Hoechst was added to correct for cell number (1 μg/mL). Next, ATP was measured using mammalian lysis buffer for 5 minutes, after which 50 μL ATP substrate solution was added to the wells and incubated for 10 minutes in a dark environment. Finally, medium was transferred to a white plate to measure luminescence.

CC(C)=CCC/C(C)=C/CC/C(C)=C/CC/C(C)=C/CC/C(C)=C/CC/C(C)=C/CC/C(C)=C/CC1=C(C)C(=O)c2ccccc2C1=O [vitamin K2 (MK-7)]
oxidative stress (DCF fluorescence normalized for cell count) [1]: clearly reduced the oxidative stress | cell ATP / ATP generation ([2]; warfarin 10 or 50 μM, vitamin K2 (MK-7) 10 μM): increased cell ATP | oxidative stress induced by warfarin ([2]; warfarin 50 μM + vitamin K2 (MK-7) 10 μM): counteracted the oxidative stress induced by warfarin | hypoxia induced oxidative stress [3]: seems to counteract hypoxia induced oxidative stress | effect of vitamin K2 (MK-7) on inhibition of thrombus formation by dabigatran and rivaroxaban [4]: did not modify this effect significantly | ATP levels compared to CoCl2 ([5]; 10 μM vs CoCl2 100 μM): significant higher ATP levels | ATP production compared to vehicle ([5]; CoCl2 100 μM, vitamin K2 (MK-7) 10 μM): increased ATP production slightly, though significant
